Experiment: Potency loss of actives infused into isomalt based candy at 300° F.
Assay type: physicochemical

## C=CC(=C)CCC=C(C)C [Myrcene, myrcene]
  Potency loss %: 300° F. for 5 minutes, Infused by Quillaja extract emulsion: −26%
  Potency loss %: 300° F. for 5 minutes, Infused by gum acacia emulsion: −10%
  Potency loss %: 300° F. for 15 minutes, Infused by Quillaja extract emulsion: −51%
  Potency loss %: 300° F. for 15 minutes, Infused by gum acacia emulsion: −15%

## C=C(C)[C@H]1CC=C(C)CC1 [Limonene, limonene]
  Potency loss %: 300° F. for 5 minutes, Infused by Quillaja extract emulsion: −37%
  Potency loss %: 300° F. for 5 minutes, Infused by gum acacia emulsion: −12%
  Potency loss %: 300° F. for 15 minutes, Infused by Quillaja extract emulsion: −69%
  Potency loss %: 300° F. for 15 minutes, Infused by gum acacia emulsion: −17%

## C=C(C)[C@@H]1CCC(C)=C[C@H]1c1c(O)cc(CCCCC)cc1O [CBD, cannabidiol, reference compound]
  Potency loss %: 300° F. for 5 minutes, Infused by Quillaja extract emulsion: −5%
  Potency loss %: 300° F. for 5 minutes, Infused by gum acacia emulsion: −3%
  Potency loss %: 300° F. for 15 minutes, Infused by Quillaja extract emulsion: −4%
  Potency loss %: 300° F. for 15 minutes, Infused by gum acacia emulsion: −2%

## CCCCCc1cc(O)c2c(c1)OC(C)(C)[C@@H]1CCC(C)=C[C@@H]21 [THC, tetrahydrocannabinol, reference compound]
  Potency loss %: 300° F. for 5 minutes, Infused by Quillaja extract emulsion: −15%
  Potency loss %: 300° F. for 5 minutes, Infused by gum acacia emulsion: −8%
  Potency loss %: 300° F. for 15 minutes, Infused by Quillaja extract emulsion: −25%
  Potency loss %: 300° F. for 15 minutes, Infused by gum acacia emulsion: −16%

## CCCCCc1cc(O)c2c(c1)OC(C)(C)c1ccc(C)cc1-2 [CBN, cannabinol]
  Potency loss %: 300° F. for 5 minutes, Infused by Quillaja extract emulsion: −1%
  Potency loss %: 300° F. for 5 minutes, Infused by gum acacia emulsion: 0%
  Potency loss %: 300° F. for 15 minutes, Infused by Quillaja extract emulsion: −1%
  Potency loss %: 300° F. for 15 minutes, Infused by gum acacia emulsion: 0%

Source: US12144365B2, “Emulsions and derivatives for infusing hydrophobic active agents into an edible product” (priority 2021, dated 2024)
